The text below walks through data of patent US20220175776A1, “COMBINATION OF CHIR99021 AND VALPROIC ACID FOR TREATING HEARING LOSS” (Frequency Therapeutics, Inc., priority 2019, published 2022).

Like-named read-outs stand apart in the source and are kept apart here. Bounds are passed on as bounds.

One series deals with HDAC. The settings on record: Table 4, HDAC class; cited from earlier work.
The next series deals with MAOs A and B. The settings on record: Table 6, single value, isoform not stated; read-out: Select MAOs A and B; cited from earlier work.
In a further series the test system is Lgr5+ cochlear cells. In words: Lgr5+ Assay (in vitro Lgr5+ cell proliferation assay). The format is cell-based.
Series [1] addresses EZH2 (Homo sapiens, UniProt O75530+Q15910). The settings on record: Table 7; includes EED, SAM-competitive and SAH-hydrolase inhibitors; read-out: pKi or IC50 (converted); cited from earlier work.
In series [2] the target is EZH2 (Homo sapiens, UniProt Q15910). The settings on record: Table 7; literature, cells not named; cited from earlier work.
In another series the test system is TAZ. The settings on record: Table 10; literature, cells not named; cited from earlier work.
For series [3] the following is noted: Table 6, human; cited from earlier work.
A further series deals with EZH-1 (Homo sapiens, UniProt Q92800). The settings on record: Table 7, cited from earlier work.
For series [4] the following is noted: human, in vivo. An excerpt:
Patients underwent physical examination of weight and height, vital signs (body temperature, pulse rate, blood pressure), 12-lead electrocardiogram (ECG), drug screen, clinical laboratory testing (hematology, serum chemistry, urinalysis), urine pregnancy test, and hepatitis B and C antibody tests.

The nature of series [5]: Perilymph sampling after intratympanic injection, mass spectrometry. The settings on record: mice, perilymph of 7 animals, within 0.5 hours after intratympanic injection of 10 µL with 87.6 mg/ml NaVPA and 1.39 mg/ml CHIR99021. In kind it is in vivo. Here is the method: The effects of CHIR99021 and valproic acid (VPA) on hearing in mice with SNHL were examined. Ten-week-old CBA/CaJ mice were deafened using an established method in which mice were exposed to 8-16 kHz octave band noise for 2 hours at ≥116 dB (Wang et al., 2002). […] Auditory brainstem responses (ABRs) were obtained using tone-burst stimuli for frequencies spanning ˜80% of the cochlea 24 hours after noise administration to establish a baseline for recovery. Animals were dosed once following the 24 hour ABR. Distortion product otoacoustic emissions (DPOAEs) were not routinely analyzed since thresholds after treatment were above DPOAE detection levels. CHIR99021 and VPA were delivered locally by intratympanic injection into the middle ear using a pulled glass pipette, a technique that mimics the standard clinical middle ear injection technique used in humans. The delivery vehicle was adapted from previous work using thermo-reversible poloxamer gels to deliver drugs into the middle ear for diffusion into the cochlea (Salt et al, 2011; Wang et al, 2009). […] Using established techniques (Hirose et al., 2014), perilymph was sampled from 7 animals and analyzed using mass spectrometry to determine entry of CHIR99021 and VPA into the cochlea. Within 0.5 hours, CHIR99021 was detected at 3.5 μM+1.5 μM and VPA was detected at 310.3 μM+51.8 μM. […]

For the next series, the target named is LSD1 (Homo sapiens, UniProt O60341). The settings on record: Table 6, LSD1; read-out: pKi or IC50 (converted); cited from earlier work.
[6] abbreviates: Table 1, GSK3 inhibitors, concentration range.
[7] abbreviates: Table 10, TAZ activators, concentration range.
[8] abbreviates: Table 7, EZH2 inhibitors, concentration range.

EZH2 (Homo sapiens, UniProt O75530+Q15910), sequence (Q15910 whole entry): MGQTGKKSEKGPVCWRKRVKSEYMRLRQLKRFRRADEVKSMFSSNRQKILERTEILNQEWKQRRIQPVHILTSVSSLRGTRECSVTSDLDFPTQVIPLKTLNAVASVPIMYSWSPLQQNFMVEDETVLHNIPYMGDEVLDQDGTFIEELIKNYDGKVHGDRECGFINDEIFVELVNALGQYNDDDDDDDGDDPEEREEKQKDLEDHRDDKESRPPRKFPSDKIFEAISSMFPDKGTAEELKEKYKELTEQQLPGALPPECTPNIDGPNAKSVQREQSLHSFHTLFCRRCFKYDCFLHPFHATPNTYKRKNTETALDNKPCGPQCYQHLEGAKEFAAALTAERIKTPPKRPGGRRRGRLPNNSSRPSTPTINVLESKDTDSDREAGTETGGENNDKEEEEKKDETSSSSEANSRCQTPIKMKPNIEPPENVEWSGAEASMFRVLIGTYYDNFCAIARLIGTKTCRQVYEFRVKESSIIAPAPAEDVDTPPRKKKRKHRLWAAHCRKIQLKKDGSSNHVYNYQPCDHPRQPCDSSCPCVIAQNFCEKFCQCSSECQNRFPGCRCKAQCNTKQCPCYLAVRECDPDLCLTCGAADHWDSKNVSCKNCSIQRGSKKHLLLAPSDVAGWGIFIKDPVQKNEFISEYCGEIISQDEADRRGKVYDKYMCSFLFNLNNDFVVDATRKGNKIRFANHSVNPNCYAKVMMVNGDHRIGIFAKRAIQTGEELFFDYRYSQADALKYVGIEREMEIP
EZH2 (Homo sapiens, UniProt O75530+Q15910), sequence (O75530 whole entry): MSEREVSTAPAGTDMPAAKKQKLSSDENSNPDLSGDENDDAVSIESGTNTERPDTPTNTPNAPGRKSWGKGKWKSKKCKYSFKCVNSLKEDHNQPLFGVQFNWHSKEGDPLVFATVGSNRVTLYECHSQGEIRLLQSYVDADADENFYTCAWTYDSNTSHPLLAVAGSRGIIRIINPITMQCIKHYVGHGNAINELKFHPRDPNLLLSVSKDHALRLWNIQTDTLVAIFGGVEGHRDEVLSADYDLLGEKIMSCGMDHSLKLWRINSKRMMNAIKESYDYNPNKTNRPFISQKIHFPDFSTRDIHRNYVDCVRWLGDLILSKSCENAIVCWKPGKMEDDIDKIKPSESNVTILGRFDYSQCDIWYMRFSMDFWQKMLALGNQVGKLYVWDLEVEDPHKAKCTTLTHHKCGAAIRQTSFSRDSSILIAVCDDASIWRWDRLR
EZH2 (Homo sapiens, UniProt O75530+Q15910), sequence (Q15022 whole entry partner): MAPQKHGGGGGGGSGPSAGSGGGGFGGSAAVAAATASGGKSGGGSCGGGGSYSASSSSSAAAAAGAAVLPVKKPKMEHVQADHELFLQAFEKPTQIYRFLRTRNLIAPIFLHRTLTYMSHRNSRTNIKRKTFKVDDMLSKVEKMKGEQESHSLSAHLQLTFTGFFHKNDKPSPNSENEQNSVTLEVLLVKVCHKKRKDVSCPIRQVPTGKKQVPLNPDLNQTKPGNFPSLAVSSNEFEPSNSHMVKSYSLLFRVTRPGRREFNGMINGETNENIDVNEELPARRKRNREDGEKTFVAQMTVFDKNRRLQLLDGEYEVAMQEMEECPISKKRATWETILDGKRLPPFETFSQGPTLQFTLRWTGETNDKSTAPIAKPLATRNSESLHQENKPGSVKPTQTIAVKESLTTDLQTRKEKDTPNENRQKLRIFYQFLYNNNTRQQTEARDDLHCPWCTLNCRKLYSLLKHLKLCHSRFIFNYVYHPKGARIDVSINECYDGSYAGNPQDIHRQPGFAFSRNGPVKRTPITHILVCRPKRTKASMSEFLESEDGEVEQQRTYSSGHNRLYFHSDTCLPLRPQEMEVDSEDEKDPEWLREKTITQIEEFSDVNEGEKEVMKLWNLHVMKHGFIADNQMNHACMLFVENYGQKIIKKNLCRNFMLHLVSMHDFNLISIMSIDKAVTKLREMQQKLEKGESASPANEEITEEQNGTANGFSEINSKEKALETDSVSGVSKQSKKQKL
EZH2 (Homo sapiens, UniProt O75530+Q15910), sequence (Q09028 whole entry partner): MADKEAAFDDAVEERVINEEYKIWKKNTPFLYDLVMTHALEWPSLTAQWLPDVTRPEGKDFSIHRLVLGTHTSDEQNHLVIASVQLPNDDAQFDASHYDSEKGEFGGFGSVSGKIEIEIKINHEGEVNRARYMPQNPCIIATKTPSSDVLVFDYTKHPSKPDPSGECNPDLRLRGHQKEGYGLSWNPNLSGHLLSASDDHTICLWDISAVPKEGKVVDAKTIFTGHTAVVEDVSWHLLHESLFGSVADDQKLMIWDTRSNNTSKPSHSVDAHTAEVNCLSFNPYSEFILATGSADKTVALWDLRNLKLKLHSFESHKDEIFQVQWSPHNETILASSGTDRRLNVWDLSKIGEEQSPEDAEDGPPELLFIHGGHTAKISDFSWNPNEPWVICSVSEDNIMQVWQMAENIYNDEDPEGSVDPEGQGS
EZH-1, sequence (Q92800 whole entry): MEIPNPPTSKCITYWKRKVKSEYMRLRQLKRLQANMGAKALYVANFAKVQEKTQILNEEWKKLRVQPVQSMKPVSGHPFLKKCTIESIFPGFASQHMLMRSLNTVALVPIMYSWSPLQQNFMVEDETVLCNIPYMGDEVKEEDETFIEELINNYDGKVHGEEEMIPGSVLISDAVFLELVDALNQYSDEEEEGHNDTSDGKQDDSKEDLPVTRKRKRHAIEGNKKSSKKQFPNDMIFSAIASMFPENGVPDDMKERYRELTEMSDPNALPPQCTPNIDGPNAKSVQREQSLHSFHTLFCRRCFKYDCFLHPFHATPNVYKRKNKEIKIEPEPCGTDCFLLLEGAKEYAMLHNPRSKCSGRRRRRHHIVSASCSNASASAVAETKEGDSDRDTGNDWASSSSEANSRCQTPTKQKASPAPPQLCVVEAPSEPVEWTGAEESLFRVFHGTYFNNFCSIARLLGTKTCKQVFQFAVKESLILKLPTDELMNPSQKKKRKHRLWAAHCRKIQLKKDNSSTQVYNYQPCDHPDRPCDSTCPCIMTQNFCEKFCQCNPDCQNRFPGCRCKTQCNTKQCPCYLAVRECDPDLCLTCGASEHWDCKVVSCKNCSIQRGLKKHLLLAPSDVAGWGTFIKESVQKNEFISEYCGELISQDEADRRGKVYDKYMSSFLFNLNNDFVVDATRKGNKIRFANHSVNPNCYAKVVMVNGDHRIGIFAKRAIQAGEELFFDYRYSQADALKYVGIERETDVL
EZH-1, sequence (O75530 whole entry partner): as the sequence (O75530 whole entry) above
EZH-1, sequence (Q15022 whole entry partner): as the sequence (Q15022 whole entry partner) above
EZH-1, sequence (Q09028 whole entry partner): as the sequence (Q09028 whole entry partner) above
EZH2 (Homo sapiens, UniProt Q15910), sequence (Q15910 whole entry): as the sequence (Q15910 whole entry) above
EZH2 (Homo sapiens, UniProt Q15910), sequence (O75530 whole entry partner): as the sequence (O75530 whole entry) above
EZH2 (Homo sapiens, UniProt Q15910), sequence (Q15022 whole entry partner): as the sequence (Q15022 whole entry partner) above
EZH2 (Homo sapiens, UniProt Q15910), sequence (Q09028 whole entry partner): as the sequence (Q09028 whole entry partner) above

On to `CCCC(CCC)C(=O)[O-].[Na+]` [Sodium Valproate], for which the Class selectivity result with HDAC was “Class I”.

Take `O=C(O)c1ccc(CN2CCC(CN[C@@H]3C[C@H]3c3ccccc3)CC2)cc1` [GSK-2879552]: the IC50 in the series on MAOs A and B was 20 µM.

For the compound `Cc1ccc(C(=O)Nc2c[nH]nc2C(=O)NCCCOC(C)C)cn1` [GSK XXII], in the series with Lgr5+ cochlear cells (setting [6]), the “Lgr5+ Assay” value fell in the range of 0.2 to 1 µM.

As for `Cc1cc(C)c(CN2CCc3c(Cl)cc(-c4c(C)noc4C)c(Cl)c3C2=O)c(=O)[nH]1` [PF-06726304], the IC50 on EZH2 [1] is 1.1 nM. The “Lit Cell Poten” value on EZH2 [2] was 10 to 25 nM.

On to `CCCCc1nc2cc(-c3cccnc3)c(C)nc2n1Cc1ccc(-c2ccccc2-c2nn[nH]n2)cc1` [TM-25659], for which the “Lit Cell” value in the series with TAZ was 10 to 100 µM. Moreover, the “Lgr5+ Assay” value in the series with Lgr5+ cochlear cells (setting [7]) is 10 to 100 µM.

Regarding `C/C(=N\NC(=O)c1cccc(S(=O)(=O)N2CCOCC2)c1)c1cc(Cl)ccc1O` [SP-2509], the IC50 with MAOs A and B is greater than 300 µM.

In the case of `CCCc1cc(C)[nH]c(=O)c1CNC(=O)c1cc(-c2ccc(N3CCN(C(C)C)CC3)nc2)cc2c1cnn2C(C)C` [UNC1999], the IC50 at EZH2 [1] was 10 nM.

Take `N[C@@H]1C[C@H]1c1ccccc1` [TCP]: in [3], the “Human Plasma Conc, Cmax” value was 30 to 200 ng/mL. In the series on Lgr5+ cochlear cells (Table 6, concentration range), the “Lgr5+ Assay” value was in the range of 0.1 to 20 µM.

In the case of `Cc1coc2c1C(=O)C(=O)c1c-2ccc2c1CC[C@H](O)[C@]2(C)O` [Tanshindiol B], the IC50 at EZH2 [1] is 520 nM.

Consider `CCCc1cc(C)[nH]c(=O)c1CNC(=O)c1cc(-c2ccnc(N3CCN(C)CC3)c2)cc2c1cnn2C(C)C` [GSK343], for which the IC50 at EZH2 [1] is 1.2 nM. Further, the “Select vs EZH-1” value at EZH-1 (given as fold) was 60x.

As for `C=CCNc1nc(N)c(C(=O)c2ccc(F)s2)s1` [TT10], the “Lit Cell” value in the series with TAZ was 1 µM. In the series with Lgr5+ cochlear cells (setting [7]), the “Lgr5+ Assay” value lay in the range of 1 to 10 µM.

On to `CN1CCN(C(=O)[C@H](CCCN[C@@H]2C[C@H]2c2ccc(F)cc2)NC(=O)c2ccc(-n3ccnn3)cc2)CC1` [IMG-7289], for which, in series [3], the “Human Plasma Conc, Cmax” value is 63 ng/mL.

As for `N#Cc1c2c(c3nncn3c1NCc1ccco1)CN(Cc1ccccc1)CC2` [EED162], at EZH2 [1], the IC50 is 30 nM.

With `CCCc1cc(C)[nH]c(=O)c1CNC(=O)c1cc(-c2ccc(N3CCN(C(=O)CCOCCOCCOCCOCCOCCOCCOCCOCCOCCOCCOCCOCCNC(=O)CCCC[C@@H]4SC[C@@H]5NC(=O)N[C@@H]54)CC3)nc2)cc2c1cnn2C(C)C` [UNC 2399], the “Lgr5+ Assay” value in the series on Lgr5+ cochlear cells (setting [8]) lay in the range of 0.1 to 10 µM.

`Cc1c[nH]c(-c2cnc(NCCNc3ccc(C#N)cn3)nc2-c2ccc(Cl)cc2Cl)n1` [CHIR99021]: the “time until cleared from the systemic circulation” value in [4] is no more than 24 h. For the same compound, in the series with Lgr5+ cochlear cells (setting [6]), the “Lgr5+ Assay” value fell in the range of 2 to 6 µM.

Regarding `Cc1cc(C)c(CNC(=O)c2cc(-c3ccc(N4CCN(C)CC4)nc3)cc3c2cnn3C(C)C)c(=O)[nH]1` [GSK926], the IC50 on EZH2 [1] is 7.9 nM.

In the case of `Nc1nccc2c1ncn2[C@@H]1C=C(CO)[C@@H](O)[C@H]1O` [DZNep], the “Lit Cell Poten” value on EZH2 [2] was 1000 nM. Besides, the “Lgr5+ Assay” value in the series on Lgr5+ cochlear cells (Table 7, EZH2 inhibitors, result in words) is reported as “Activity”.

Regarding `Nc1ncnc2c1ncn2[C@@H]1O[C@H](C[C@@H](N)CC[C@H](N)C(=O)O)[C@@H](O)[C@H]1O` [Sinefungin], the IC50 on EZH2 [1] is 20 nM.

Take `COc1cc(C)[nH]c(=O)c1CNC(=O)c1c(C)n([C@H](C)C2CCOCC2)c2ccccc12` [CPI-360]: in the series with Lgr5+ cochlear cells (setting [8]), the “Lgr5+ Assay” value lay in the range of 0.1 to 10 µM.

With `C=CCNc1nc(N)c(C(=O)c2ccc(Cl)s2)s1` [IBS008738], the “Lgr5+ Assay” value in the series with Lgr5+ cochlear cells (setting [7]) was 1.1 to 30 µM.

For `COc1cc(C)[nH]c(=O)c1CN1CCc2c(Cl)cc([C@H](OC)C3COC3)c(Cl)c2C1=O` [PF-06821497], the IC50 at EZH2 [1] was less than 1 nM. The “Select vs EZH-1” value at EZH-1 (given as a concentration) was 70 nM.

With `CCCC(CCC)C(=O)O` [VPA, valproic acid], in series [4], the “time to peak plasma concentrations” value is no more than 2 h and the “time until cleared from the systemic circulation” value is no more than 24 h. The “concentration detected in perilymph” value in [5] was 310.3 µM.

With `CCC(CC)n1ccc2c(C(=O)NCc3c(C)cc(C)[nH]c3=O)cc(C#N)cc21` [Compound E11], the IC50 is 13 nM on EZH2 [1] and 0.243 µM at LSD1. Besides, the “Select vs EZH-1” value on EZH-1 (given as fold) is recorded as 90x. For the same compound, the “Lgr5+ Assay” value with Lgr5+ cochlear cells (Table 7, EZH2 inhibitors, concentration) is 5 µM.

As to `CC(C)=CCC/C(C)=C/CC/C(C)=C/CC/C(C)=C/CO` [Geranylgeraniol], on LSD1, the IC50 is 80 µM.

As for `C#CCN(C)Cc1ccccc1` [Pargyline], the IC50 at LSD1 is 1000 µM.

On to `N#Cc1ccc2[nH]c(O)c(-c3ccc(CN4CCOCC4)cn3)c2c1` [AZD 1080], for which, in the series with Lgr5+ cochlear cells (setting [6]), the “Lgr5+ Assay” value fell in the range of 1 to 5 µM.

With `Oc1ccc(C=Cc2cc(O)cc(O)c2)cc1` [Resveratrol], on LSD1, the IC50 is 15 µM.

On to `CCc1c(N(CC)C2CCOCC2)cc2oc(C3CCN(C(C)C)CC3)cc2c1C(=O)NCc1c(C)cc(C)[nH]c1=O` [EBI-2511], for which the IC50 on EZH2 [1] was 4 nM.

Take `Cc1coc2c1C(=O)C(=O)c1c-2ccc2c1CC[C@@H](O)[C@]2(C)O` [Tanshindiol C]: the IC50 on EZH2 [1] was 550 nM.

Regarding `C#CCC(CCCCCC)C(=O)O` (stereo not drawn) [2-hexyl-4-pentynoic acid], the Class selectivity result in the series on HDAC was “Class I”.

Take Thiourea: in the series with MAOs A and B, the IC50 was greater than 1250 µM.

`CC(C)=CCC/C(C)=C/CC/C(C)=C/CC/C(C)=C/C(=O)O` [geranylgeranoic acid]: the IC50 at LSD1 was 120 µM.
